# Experimental data from the supplement of paper PMC10307832.
# Legend:
# Assay in all cases: relative viability (nuclei count vs DMSO), 5 days (fraction); higher = more cells survive
# BMX-IN-1 + AZD7762 = compound: C=CC(=O)Nc1cc(-n2c(=O)ccc3cnc4ccc(-c5ccc(NS(C)(=O)=O)cc5)cc4c32)ccc1C [BMX-IN-1] + NC(=O)Nc1cc(-c2cccc(F)c2)sc1C(=O)N[C@H]1CCCNC1 [AZD7762] (partner 0.2 µM)
# Method in brief: (§1)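 The day after seeding in 1536-well plates, lung cancer cell lines were treated by pin tool with a single drug, or with a fixed anchor-drug dose together with five library-drug doses (not always all listed) in √10 steps. After 5 days, a combined fix-and-stain solution (final 0.05% Triton X-100, 1% formaldehyde, 1 ug/ml Hoechst) was added. Nuclei counted on 4× images gave relative viability as treated counts over vehicle counts, reported as the median of duplicate plates.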
# PAC-1 + Foretinib = compound: C=CCc1cccc(/C=N/NC(=O)CN2CCN(Cc3ccccc3)CC2)c1O [PAC-1] + COc1cc2c(Oc3ccc(NC(=O)C4(C(=O)Nc5ccc(F)cc5)CC4)cc3F)ccnc2cc1OCCCN1CCOCC1 [Foretinib] (partner 0.25 µM)
# Method in brief: as §1
# PAC-1 + Dasatinib = compound: C=CCc1cccc(/C=N/NC(=O)CN2CCN(Cc3ccccc3)CC2)c1O [PAC-1] + Cc1nc(Nc2ncc(C(=O)Nc3c(C)cccc3Cl)s2)cc(N2CCN(CCO)CC2)n1 [Dasatinib] (partner 0.075 µM)
# Method in brief: as §1
# Ibrutinib + Pemetrexed = compound: C=CC(=O)N1CCC[C@@H](n2nc(-c3ccc(Oc4ccccc4)cc3)c3c(N)ncnc32)C1 [Ibrutinib] + Nc1nc2[nH]cc(CCc3ccc(C(=O)N[C@@H](CCC(=O)O)C(=O)O)cc3)c2c(=O)[nH]1 [Pemetrexed] (partner 0.2 µM)
# Method in brief: as §1
Cell Line,relative viability (BMX-IN-1 + AZD7762; first compound 0.02 µM),relative viability (BMX-IN-1 + AZD7762; first compound 0.2 µM),relative viability (BMX-IN-1 + AZD7762; first compound 0.6325 µM),relative viability (BMX-IN-1 + AZD7762; first compound 2 µM),relative viability (PAC-1 + Foretinib; first compound 0.02 µM),relative viability (PAC-1 + Foretinib; first compound 0.06325 µM),relative viability (PAC-1 + Foretinib; first compound 0.2 µM),relative viability (PAC-1 + Foretinib; first compound 2 µM),relative viability (PAC-1 + Dasatinib; first compound 0.02 µM),relative viability (PAC-1 + Dasatinib; first compound 0.06325 µM),relative viability (PAC-1 + Dasatinib; first compound 0.2 µM),relative viability (PAC-1 + Dasatinib; first compound 2 µM),relative viability (Ibrutinib + Pemetrexed; first compound 0.005 µM),relative viability (Ibrutinib + Pemetrexed; first compound 0.01581 µM),relative viability (Ibrutinib + Pemetrexed; first compound 0.05 µM),relative viability (Ibrutinib + Pemetrexed; first compound 0.1581 µM),relative viability (Ibrutinib + Pemetrexed; first compound 0.5 µM)
NCI-H2085,1.08,1.07,0.986,0.996,0.815,0.932,0.998,1.07,0.225,0.234,0.285,0.213,0.878,0.828,0.759,0.621,0.671
HCC-78,0.662,0.64,0.587,0.726,0.522,0.591,0.634,0.589,0.335,0.331,0.404,0.394,–,0.84,0.892,0.879,0.93
NCI-H647,0.492,0.583,0.71,0.62,1.17,1.08,1.29,1.31,0.203,0.172,0.185,0.164,0.197,0.183,0.205,0.194,0.421
NCI-H1299,–,–,–,–,1.14,1.04,1.04,1.06,–,–,–,–,–,–,–,–,–
LU99A,0.393,0.416,0.415,0.288,0.91,0.854,0.818,0.774,0.549,0.579,0.498,0.505,0.217,0.211,0.205,0.206,0.412
A549,–,–,–,–,0.952,0.964,1.04,1.01,–,–,–,–,–,–,–,–,–
